Measured values published in patent publication US20250302909A1, “METHODS FOR THE TREATMENT OF AGE-RELATED MACULAR DEGENERATION” (Stealth BioTherapeutics Inc., priority 2024, published 2025).

How the values were obtained:
[1] = test system: patients with at least one eye with dry AMD and GA; experiment: Phase 2 trial (NCT03891875): low-luminance best-corrected visual acuity (LL BCVA); type: in vivo, human; settings: week 48
Protocol: (§1) Study design. […] (Allingham 2022; Mettu 2022).
Patients—Key inclusion criteria. The original protocol specified that adults ≥55 years of age with one eye with dry AMD and GA were eligible for study entry. However, a subsequent amendment to the protocol limited inclusion to patients with noncentral GA. Noncentral GA and area was determined primarily by fundus autofluorescence (FAF) and all noncentral GA lesions were required to be ≥150 μm from foveal center with preserved outer retinal structural details, as confirmed by the central reading center (BIRC, Boston MA). Noncentral GA was required to be ≥0.05 mm^2 and ≤10.16 mm^2 in size, and reside completely within the FAF 30- or 35-degree image. […] The fellow eye was allowed to have AMD with or without GA, MNV, central GA, or no pathology.
(§2) Study objectives and endpoints. The primary efficacy endpoints were changes from baseline in LL BCVA and in square root converted GA area as measured by OCT. Secondary efficacy endpoints included changes in ellipsoid zone integrity, categorical changes from baseline in LL-BCVA, changes from baseline in LL reading acuity (LLRA), BCVA, and GA area as measured by FAF. Additional predefined endpoints included change in center 1-mm and 2-mm mean EZ-RPE thickness, National Eye Institute Visual Function Questionnaire (VFQ-39) score, RA at standard light, visual function by the Low-Luminance Questionnaire (LLQ). For efficacy endpoints, the unit of analysis was study eye; in cases where both eyes were eligible for analysis, the study eye was the eye with the worse LL BCVA as determined at baseline (right eye was the study eye for equal LL BCVA). Ellipsoid zone integrity was measured as previously described on OCT utilizing a machine learning enhanced multi-layer segmentation platform that provided panmacular assessment of the EZ and RPE location (Sirici, et al., Ophthamol Surg Lasers Imaging Retina, 2022; Itoh, et al, Br J Ophthamol, 2016).
Statistical analysis. Safety and efficacy variables were summarized descriptively. […] Patients were analyzed according to the actual treatment received. […]

[2] = test system: patients with at least one eye with dry AMD and GA
Protocol: Study design. In this Phase 2, randomized, placebo-controlled, double-masked, multicenter, safety and efficacy trial (ClinicalTrials.gov identifier NCT03891875), patients with at least one eye with dry AMD and GA were included. Visit 1 (screening visit) was performed no more than 14 days before the baseline visit (visit 2, day 1) (FIG. 1). […] (Allingham 2022; Mettu 2022). Patients were treated for 48 weeks, with assessments at day 1 and weeks 4, 8, 12, 24, 36, and 48 (visits 2 to 8) plus a final safety follow-up visit 4 weeks after the last day of study treatment (week 52; visit 9). Patient diaries and vial counts were used and reviewed to verify compliance.
Safety/tolerability evaluations included assessment of the incidence and severity of adverse events/adverse device effects, incidence of conversion to MNV, changes from baseline in vital sign measurements, electrocardiograms, clinical evaluations, clinical laboratory evaluations, slit lamp examination, and dilated fundus examination.
Statistical analysis. Safety and efficacy variables were summarized descriptively. The safety population included all patients receiving ≥1 dose of investigational product. […] Patients were analyzed according to the actual treatment received. A sample size of 180 patients provides ≥80% power to detect a 5-letter (1-line) change from baseline mean difference in LL BCVA between drug and placebo, assuming a standard deviation of 11 letters, at a two-sided alpha-level of 0.10, and proves approximately 80% power to detect a 30% difference in the change from baseline in square root transformed total GA area by OCT between drug and placebo, assuming a standard deviation of 0.2 mm/year, and an average change of 0.33 mm/year, at a two-sided alpha-level of 0.1.

[3] = general statement on formulation
[4] = test system: patients with at least one eye with dry AMD and GA; experiment: Phase 2 trial: ellipsoid zone integrity (tEZa, pEZa) and GA on OCT; type: in vivo, human
From the text: as §1, §2
Statistical analysis. Safety and efficacy variables were summarized descriptively. […] Patients were analyzed according to the actual treatment received.
For continuous data, a mixed model for repeated measures was used for each eye separately (study eye), with fixed effects for treatment arm, study visit, the treatment arm-by-visit interaction, baseline as a covariate, a baseline-by-visit interaction, a random effect for subject, using an unstructured covariance structure. The primary time point for analysis was week 48 (end of treatment visit) and the mITT population was the primary analysis population using observed data. A family-wise alpha level of 0.1 was maintained for the primary endpoint family, using Hochberg's procedure at the primary time point of 48 weeks. […] Otherwise, the endpoint with the smaller p-value of the two was considered statistically significant, if statistically significant at the 0.05 (two-sided) level of significance.

[5] = test system: patients with at least one eye with dry AMD and GA; experiment: Example 2: macular area of photoreceptor loss (tEZa) over time, linear mixed effects model; type: in vivo, human
Protocol: Data for this example was collected as part of the clinical study described above in Example 1. […] The primary analysis of rate of change in the macular area of photoreceptor loss over time was conducted using a linear mixed effects model assuming time as continuous and linear. […] Correlation between the repeated measurements of the same subject were accounted for by allowing an unstructured covariance matrix for the residuals. The outcome was the change in macular area of photoreceptor loss from baseline to each time point (time points being t=0, t=12 weeks, t=24 weeks, t=36 weeks and t=48 weeks) during the treatment period through week 48.

[6] = Table 1, 117 randomized to elamipretide
[7] = clinical study, rate of growth of photoreceptor loss

## Cc1cc(O)cc(C)c1C[C@H](NC(=O)[C@H](N)CCCNC(=N)N)C(=O)N[C@@H](CCCCN)C(=O)N[C@@H](Cc1ccccc1)C(N)=O (stereo in doubt) [elamipretide, H-D-Arg-2′,6′Dmt-Lys-Phe-NH2]
[1]; primary endpoint, 40 mg subcutaneous once daily, mITT, P=0.49 vs placebo
  least-squares (LS) mean changes from baseline in LL BCVA: −3.0 letters
[1]; 40 mg subcutaneous once daily, P=0.0404 vs placebo
  patients experiencing a ≥2-line gain (≥10 letter) in LL BCVA: 14.6%
[1]; LL BCVA, vs placebo
  percentage of patients experiencing a >1-line gain: higher compared to placebo
[2]; [6]
  Early discontinuation: Adverse event: 10 (8.5) n (%)
  Early discontinuation: Withdrawal by subject: 20 (17.1) n (%)
  Subjects leaving study early: 34 (29.1) n (%)
[2]; of n=117 randomized
  patients who discontinued the study early (percent): 29%
[3]
  water solubility: highly water soluble
[4]; LS mean change baseline to week 48
  reduction in progression of pEZa relative to placebo: 47%
[4]; LS mean change baseline to week 48, macular percentage of tEZa
  reduction in progression of tEZa relative to placebo: 43%
[4]; during the trial, elamipretide treated arm
  progression of GA area relative to the baseline boundary of total EZ attenuation: GA area did not progress to the baseline boundary of total EZ attenuation
[4]; elamipretide arm, placebo arm 35%
  growth of partial EZ attenuation area during the trial: 14%
[4]; elamipretide arm, placebo arm 52%
  growth of total EZ attenuation area (mm^2) during the trial: 24%
[4]; post-hoc analysis
  rate of progression of the EZ-GA gap: slower rate of progression
[4]; week 48, 40 mg subcutaneous once daily, P=0.0034 vs placebo
  LS mean change from baseline to week 48 for macular percentage of tEZa (EZ-RPE thickness of 0 μm): 3.69%
[4]; week 48, 40 mg subcutaneous once daily, P=0.0040 vs placebo
  LS mean change from baseline to week 48 for pEZa (EZ-RPE thickness≤20 μm): 4.10%
[5]; FIG. 3, MMRM, weeks 12, 24, 36 and 48
  mean rate of macular photoreceptor loss compared with the untreated group: reduced mean rate of macular photoreceptor loss
[5]; FIG. 3, change in tEZa from baseline, weeks 12 to 48, 40 mg subcutaneous once daily vs untreated
  decrease of the growth of photoreceptor loss: about 50%
[5]; [7]
  clinical benefit in subjects who commenced therapy before developing measurable geographic atrophy (GA): experienced clinical benefit
  clinical benefit in subjects with non-central GA: experienced clinical benefit
